Source: paper PMC9989278, “Characterization of substrates and inhibitors of the human heterodimeric transporter 4F2hc-LAT1 using purified protein and the scintillation proximity radioligand binding assay” (Frontiers in Physiology, 2023)
Read-outs that look alike come from different tables or passages of the source. One block for each compound: values may come before it.

Tests used:
[1] = target: T1, human 4F2hc-LAT1 (Homo sapiens, UniProt Q01650); experiment: Scintillation proximity radioligand binding assay (SPA), [3H]L-leucine competition on purified protein; conditions: for Binding of [3H]L-Leucine (%), residual radioligand binding (RRB) / Binding of [3H]L-Leucine (%), residual radioligand binding: normalized to control without competitor; for Binding of [3H]L-Leucine (%), residual radioligand binding: mean of three experiments
T1 construct: Strep-tag (N); made in house; host or cells: Pichia pastoris strain KM71H
T1 sequence (Q01650 whole entry): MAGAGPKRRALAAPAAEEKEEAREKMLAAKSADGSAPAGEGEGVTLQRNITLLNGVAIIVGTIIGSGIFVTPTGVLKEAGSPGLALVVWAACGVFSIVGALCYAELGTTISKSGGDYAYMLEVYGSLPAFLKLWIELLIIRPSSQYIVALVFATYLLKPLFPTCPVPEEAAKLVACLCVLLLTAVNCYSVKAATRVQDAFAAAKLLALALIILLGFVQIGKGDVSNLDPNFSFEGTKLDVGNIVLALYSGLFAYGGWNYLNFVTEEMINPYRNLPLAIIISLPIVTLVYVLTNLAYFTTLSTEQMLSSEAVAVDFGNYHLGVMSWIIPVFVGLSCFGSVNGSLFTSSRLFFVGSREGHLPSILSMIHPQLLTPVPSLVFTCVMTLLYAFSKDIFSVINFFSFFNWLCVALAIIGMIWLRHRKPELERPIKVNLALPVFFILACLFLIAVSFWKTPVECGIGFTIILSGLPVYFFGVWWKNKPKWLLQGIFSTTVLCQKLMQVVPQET
T1 sequence (P08195 102-630 partner): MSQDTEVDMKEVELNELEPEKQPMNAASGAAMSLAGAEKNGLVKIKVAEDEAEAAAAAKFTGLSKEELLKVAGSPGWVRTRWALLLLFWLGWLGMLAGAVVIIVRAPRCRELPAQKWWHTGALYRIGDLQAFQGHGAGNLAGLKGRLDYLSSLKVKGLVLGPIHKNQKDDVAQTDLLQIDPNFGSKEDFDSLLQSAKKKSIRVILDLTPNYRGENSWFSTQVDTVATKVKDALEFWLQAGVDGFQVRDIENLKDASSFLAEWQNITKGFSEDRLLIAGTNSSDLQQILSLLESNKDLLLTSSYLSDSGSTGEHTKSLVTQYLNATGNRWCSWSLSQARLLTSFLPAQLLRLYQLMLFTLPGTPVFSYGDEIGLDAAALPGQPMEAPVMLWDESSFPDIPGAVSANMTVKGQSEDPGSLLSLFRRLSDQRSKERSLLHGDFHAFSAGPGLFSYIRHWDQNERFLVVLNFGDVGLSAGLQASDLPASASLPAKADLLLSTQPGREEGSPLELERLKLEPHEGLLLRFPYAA
Method: Purified, GDN-solubilized human 4F2hc-LAT1 was attached via the His-tag to polyvinyltolune (PVT) copper His-tag SPA beads (Perkin Elmer) and the protein-bound [^3H]L-leucine quantified using a scintillation counter (a detailed description of SPA with 4F2hc-LAT1 is given in the methodological publication by ([Kantipudi et al., 2021])). Briefly, experiments were conducted in 96-well plates and per well a reaction volume of 50 µL containing 250 µg PVT-SPA-beads, 1.75 µg 4F2hc-LAT1 protein, 2.5 μM L-leucine spiked with 0.5 µCi [^3H]L-leucine (ARC/Anawa, 100 Ci/mmol, 1 mCi/ml) plus a condition-specific substance. All components were dissolved in SPA-Buffer (100 mM BTP pH 8, 150 mM NaCl, 10% (v/v) glycerol, 0.5% (w/v) GDN). For some condition-specific substances (i.e., the thyroid hormones), 20 min sonication in a water bath at 4°C was necessary to dissolve them at 10× concentration in SPA-Buffer. Per reaction, 5 µL of a 10× stock solution of the condition-specific substance was placed in a well and diluted with 45 µL of a master mix containing the remaining components. For determining the substrate specificities (Figure 1), the twenty proteogenic L-amino acids and D-leucine were used as competitors at a final concentration of 250 µM. For determining the K D of L-leucine (Figure 2A) and K i of L-histidine (Figure 2B), homologous (L-leucine) and heterologous (L-histidine) substrate competition was applied at concentrations ranging from 0.01 to 1600 µM. […] The binding specificities of structural analogues of L-leucine (Figure 3) and L-histidine (Figure 4) were tested at a final competitor concentration of 250 µM. […] To avoid minor unspecific binding of radioactive L-leucine to the beads, the master mix was created in a specific procedure: SPA-beads were first mixed with the unlabeled L-leucine and shaken for 2 h at 4°C before adding the remaining components (protein last). For background subtraction in the bar graph experiments, a no-protein control was included using protein-free master mix (i.e., containing buffer instead of protein solution). The plate was shortly mixed by shaking and incubated at 4°C for ∼18 h before the signals were counted using a microplate scintillation counter (Trilux Microbeta, Perkin Elmer). […] Three experiments with protein from at least two different purifications were performed, each at least in triplicates.
Data were analyzed with Prism 6 (GraphPad Software). […] Each experiment was done with sample number of at least three (triplicate). Data of three independent experiments were merged by adding the normalized data to a common data set, which was used for curve fitting. For data analysis of the bar graphs, the signal of the no-protein control was subtracted from the transporter signal to obtain the net binding signal.

[2] = tested on: recombinant human LAT1; design: method as in Napolitano et al., 2015; conditions: proteoliposomes, ref Napolitano et al., 2015, cited from earlier work
[3] = target: T1, human 4F2hc-LAT1; conditions: ref Kantipudi et al., 2020, cited from earlier work
[4] = Figure 4, L-histidine analogues, competitor 250 µM
[5] = heterologous competition with [3H]L-leucine, Figure 2B, C, E, F, read-out: Ki
[6] = Figure 3, L-leucine analogues, competitor 250 µM

Compound: C[C@H](N)C(=O)O [Ala]
Binding of [3H]L-Leucine (%), residual radioligand binding ([1]; Figure 1, competitor 250 µM): 36%

Compound: N=C(N)NCCC[C@H](N)C(=O)O [Arg]
Binding of [3H]L-Leucine (%), residual radioligand binding ([1]; Figure 1, competitor 250 µM): 68%

Compound: NC(=O)C[C@H](N)C(=O)O [Asn]
Binding of [3H]L-Leucine (%), residual radioligand binding ([1]; Figure 1, competitor 250 µM): 35%

Compound: N[C@@H](CC(=O)O)C(=O)O [Asp]
Binding of [3H]L-Leucine (%), residual radioligand binding ([1]; Figure 1, competitor 250 µM): 45%

Compound: NC1(C(=O)O)CC2CCC1C2 (centres unmarked) [BCH, 2-aminobicyclo-(2,2,1)-heptane-2-carboxylic acid]
Ki [1, 5]: 81 µM

Compound: N[C@@H](CS)C(=O)O [Cys]
Binding of [3H]L-Leucine (%), residual radioligand binding ([1]; Figure 1, competitor 250 µM): 35%

Compound: CC(C)C[C@@H](N)C(=O)O [D-Leu, D-leucine]
Binding of [3H]L-Leucine (%), residual radioligand binding ([1]; Figure 1, competitor 250 µM): 52%
inhibition of [3H]L-leucine binding ([1]; competitor 250 µM, Figure 1): about 50%

Compound: NC(=O)CC[C@H](N)C(=O)O [Gln, L-glutamine]
Binding of [3H]L-Leucine (%), residual radioligand binding ([1]; Figure 1, competitor 250 µM): 29%

Compound: N[C@@H](CCC(=O)O)C(=O)O [Glu]
Binding of [3H]L-Leucine (%), residual radioligand binding ([1]; Figure 1, competitor 250 µM): 90%

Compound: NCC(=O)O [Gly]
Binding of [3H]L-Leucine (%), residual radioligand binding ([1]; Figure 1, competitor 250 µM): 44%

Compound: Nc1cc(COc2c(Cl)cc(C[C@H](N)C(=O)O)cc2Cl)c2oc(-c3ccccc3)nc2c1 [JPH203, (S)-2-amino-3-(4-((5-amino-2-phenylbenzo [d]oxazol-7-yl)-methoxy)-3,5-dichlorophenyl)-propanoic acid]
Ki ([1]; heterologous competition with [3H]L-leucine, Figure 2D, read-out: Ki): 0.079 µM

Compound: CC[C@H](C)[C@H](N)C(=O)O [L-Isoleucine, L-isoleucine]
Binding of [3H]L-Leucine (%), residual radioligand binding ([1]; Figure 1, competitor 250 µM): 19-29%
Binding of [3H]L-Leucine (%), residual radioligand binding ([1]; Figure 1, competitor 250 µM, listed as Ile): 22%
Binding of [3H]L-Leucine (%), residual radioligand binding (RRB) [1, 6]: 28%

Compound: CC(C)(C)C[C@H](N)C(=O)O [L-Neopentylglycine, L-neopentyl glycine]
Binding of [3H]L-Leucine (%), residual radioligand binding (RRB) [1, 6]: 43%
Binding of [3H]L-Leucine (%), residual radioligand binding (RRB) ([1]; Figure 3, L-leucine analogues, competitor 250 µM, listed as L-neopentyl glycine): 32–43%

Compound: CCCC[C@H](N)C(=O)O [L-Norleucine, L-norleucine]
Binding of [3H]L-Leucine (%), residual radioligand binding (RRB) [1, 6]: 62%

Compound: CC(C)[C@H](N)C(=O)O [L-Valine, L-valine]
Binding of [3H]L-Leucine (%), residual radioligand binding ([1]; Figure 1, competitor 250 µM): 19-29%
Binding of [3H]L-Leucine (%), residual radioligand binding ([1]; Figure 1, competitor 250 µM, listed as Val): 19%
Binding of [3H]L-Leucine (%), residual radioligand binding (RRB) [1, 6]: 27%

Compound: CC(C)(C)[C@H](N)C(=O)O [L-tert-Leucine, L-tert-leucine]
Binding of [3H]L-Leucine (%), residual radioligand binding (RRB) [1, 6]: 37%
Binding of [3H]L-Leucine (%), residual radioligand binding (RRB) ([1]; Figure 3, L-leucine analogues, competitor 250 µM, listed as L-tert-leucine): 37–45%

Compound: NCCCC[C@H](N)C(=O)O [Lys]
Binding of [3H]L-Leucine (%), residual radioligand binding ([1]; Figure 1, competitor 250 µM): 45%

Compound: CSCC[C@H](N)C(=O)O [Met]
Binding of [3H]L-Leucine (%), residual radioligand binding ([1]; Figure 1, competitor 250 µM): 36%

Compound: CN[C@@H](CC(C)C)C(=O)O [N-Methyl-L-Leucine, N-methyl-L-leucine]
Binding of [3H]L-Leucine (%), residual radioligand binding (RRB) [1, 6]: 103%
binding / inhibition of [3H]L-leucine binding to 4F2hc-LAT1, in words ([1]; competitor 250 µM): no significant binding

Compound: N[C@@H](CO)C(=O)O [Ser]
Binding of [3H]L-Leucine (%), residual radioligand binding ([1]; Figure 1, competitor 250 µM): 46%

Compound: NC(Cc1cc(I)c(Oc2cc(I)c(O)c(I)c2)c(I)c1)C(=O)O (centres unmarked) [T4, thyroxine]
Ki [1]: 10 µM

Compound: C[C@@H](O)[C@H](N)C(=O)O [Thr]
Binding of [3H]L-Leucine (%), residual radioligand binding ([1]; Figure 1, competitor 250 µM): 34%

Compound: N[C@@H](Cc1c[nH]c2ccccc12)C(=O)O [Trp, L-tryptophan]
Binding of [3H]L-Leucine (%), residual radioligand binding ([1]; Figure 1, competitor 250 µM): 21%
Binding of [3H]L-Leucine (%), residual radioligand binding ([1]; Figure 1, competitor 250 µM, listed as L-tryptophan): 19-29%

More lines, main results first:

Binding of [3H]L-Leucine (%), residual radioligand binding (RRB) [1, 4]: 59%
Binding of [3H]L-Leucine (%), residual radioligand binding (RRB) ([1]; Figure 4, L-histidine analogues, competitor 250 µM, listed as 1-methyl-L-histidine): 59–64%
Compound: Cn1cnc(C[C@H](N)C(=O)O)c1 [1-Methyl L-Histidine, 1-methyl-L-histidine]

Binding of [3H]L-Leucine (%), residual radioligand binding (RRB) [1, 4]: 64%
Binding of [3H]L-Leucine (%), residual radioligand binding (RRB) ([1]; Figure 4, L-histidine analogues, competitor 250 µM, listed as 3-methyl-L-histidine): 59–64%
Compound: Cn1cncc1C[C@H](N)C(=O)O [3-Methyl L-Histidine, 3-methyl-L-histidine]

Binding of [3H]L-Leucine (%), residual radioligand binding (RRB) [1, 6]: 45%
Binding of [3H]L-Leucine (%), residual radioligand binding (RRB) ([1]; Figure 3, L-leucine analogues, competitor 250 µM, listed as L-2-aminobutyric acid): 37–45%
Compound: CC[C@H](N)C(=O)O [L-2-Aminobutyric Acid, L-2-aminobutyric acid]

Binding of [3H]L-Leucine (%), residual radioligand binding (RRB) [1, 4]: 102%
binding / inhibition of [3H]L-leucine binding to 4F2hc-LAT1, in words ([1]; competitor 250 µM): no significant binding
Compound: COC(=O)[C@@H](N)Cc1c[nH]cn1 [L-Histidine Methyl Ester, L-histidine-methyl ester]

Binding of [3H]L-Leucine (%), residual radioligand binding ([1]; Figure 1, competitor 250 µM): 2%
Binding of [3H]L-Leucine (%), residual radioligand binding (RRB) [1, 4]: 1%
binding / inhibition of [3H]L-leucine binding to 4F2hc-LAT1, in words ([1]; competitor 250 µM): inhibited strongly
Ki [1, 5]: 28 µM
Compound: N[C@@H](Cc1c[nH]cn1)C(=O)O [L-Histidine, L-histidine]
Km ([2]; external side, read-out: external Km): 24.6 µM
Km ([2]; internal side, read-out: internal Km): 2800 µM
IC50 ([3]; [3H]L-leucine uptake inhibition, P. pastoris cells): 23 µM

Binding of [3H]L-Leucine (%), residual radioligand binding ([1]; Figure 1, competitor 250 µM): 1%
Binding of [3H]L-Leucine (%), residual radioligand binding (RRB) [1, 6]: 1%
binding / inhibition of [3H]L-leucine binding to 4F2hc-LAT1, in words ([1]; competitor 250 µM): inhibited strongly
Kd ([1]; homologous competition with [3H]L-leucine, Figure 2A): 26 µM
Compound: CC(C)C[C@H](N)C(=O)O [L-Leucine, L-leucine]
Km ([3]; P. pastoris cell uptake assay): 25 µM

Binding of [3H]L-Leucine (%), residual radioligand binding (RRB) [1, 6]: 106%
binding / inhibition of [3H]L-leucine binding to 4F2hc-LAT1, in words ([1]; competitor 250 µM): no significant binding
Compound: COC(=O)[C@@H](N)CC(C)C [L-Leucine-Methyl Ester, L-leucine-methyl ester]

Binding of [3H]L-Leucine (%), residual radioligand binding (RRB) [1, 6]: 32%
Binding of [3H]L-Leucine (%), residual radioligand binding (RRB) ([1]; Figure 3, L-leucine analogues, competitor 250 µM, listed as L-norvaline): 32–43%
Compound: CCC[C@H](N)C(=O)O [L-Norvaline, L-norvaline]

Binding of [3H]L-Leucine (%), residual radioligand binding (RRB) [1, 4]: 103%
binding / inhibition of [3H]L-leucine binding to 4F2hc-LAT1, in words ([1]; competitor 250 µM): no significant binding
Compound: CN[C@@H](Cc1c[nH]cn1)C(=O)O [N-Methyl L-Histidine, N-methyl-L-histidine]

Binding of [3H]L-Leucine (%), residual radioligand binding ([1]; Figure 1, competitor 250 µM): 29%
Binding of [3H]L-Leucine (%), residual radioligand binding ([1]; Figure 1, competitor 250 µM, listed as L-phenylalanine): 19-29%
Compound: N[C@@H](Cc1ccccc1)C(=O)O [Phe, L-phenylalanine]

Binding of [3H]L-Leucine (%), residual radioligand binding ([1]; Figure 1, competitor 250 µM): 26%
Binding of [3H]L-Leucine (%), residual radioligand binding ([1]; Figure 1, competitor 250 µM, listed as L-tyrosine): 19-29%
Compound: N[C@@H](Cc1ccc(O)cc1)C(=O)O [Tyr, L-tyrosine]
